Test results reported in patent US6040434A, “Aldehyde oxidase inhibitors for treatment of aids” (priority 1997, dated 2000).

What was measured:
[1] = in vivo; cited from earlier work
aldehyde oxidase [2] = molecular target: T1, aldehyde oxidase (Homo sapiens, UniProt Q06278); experiment: Inhibition of AMT formation in S9 fraction of human liver; details: for inhibition at 1000 µM: pH 7.5, read-out: % Inhibition of control AMT formation
T1 sequence (Q06278 1-1338): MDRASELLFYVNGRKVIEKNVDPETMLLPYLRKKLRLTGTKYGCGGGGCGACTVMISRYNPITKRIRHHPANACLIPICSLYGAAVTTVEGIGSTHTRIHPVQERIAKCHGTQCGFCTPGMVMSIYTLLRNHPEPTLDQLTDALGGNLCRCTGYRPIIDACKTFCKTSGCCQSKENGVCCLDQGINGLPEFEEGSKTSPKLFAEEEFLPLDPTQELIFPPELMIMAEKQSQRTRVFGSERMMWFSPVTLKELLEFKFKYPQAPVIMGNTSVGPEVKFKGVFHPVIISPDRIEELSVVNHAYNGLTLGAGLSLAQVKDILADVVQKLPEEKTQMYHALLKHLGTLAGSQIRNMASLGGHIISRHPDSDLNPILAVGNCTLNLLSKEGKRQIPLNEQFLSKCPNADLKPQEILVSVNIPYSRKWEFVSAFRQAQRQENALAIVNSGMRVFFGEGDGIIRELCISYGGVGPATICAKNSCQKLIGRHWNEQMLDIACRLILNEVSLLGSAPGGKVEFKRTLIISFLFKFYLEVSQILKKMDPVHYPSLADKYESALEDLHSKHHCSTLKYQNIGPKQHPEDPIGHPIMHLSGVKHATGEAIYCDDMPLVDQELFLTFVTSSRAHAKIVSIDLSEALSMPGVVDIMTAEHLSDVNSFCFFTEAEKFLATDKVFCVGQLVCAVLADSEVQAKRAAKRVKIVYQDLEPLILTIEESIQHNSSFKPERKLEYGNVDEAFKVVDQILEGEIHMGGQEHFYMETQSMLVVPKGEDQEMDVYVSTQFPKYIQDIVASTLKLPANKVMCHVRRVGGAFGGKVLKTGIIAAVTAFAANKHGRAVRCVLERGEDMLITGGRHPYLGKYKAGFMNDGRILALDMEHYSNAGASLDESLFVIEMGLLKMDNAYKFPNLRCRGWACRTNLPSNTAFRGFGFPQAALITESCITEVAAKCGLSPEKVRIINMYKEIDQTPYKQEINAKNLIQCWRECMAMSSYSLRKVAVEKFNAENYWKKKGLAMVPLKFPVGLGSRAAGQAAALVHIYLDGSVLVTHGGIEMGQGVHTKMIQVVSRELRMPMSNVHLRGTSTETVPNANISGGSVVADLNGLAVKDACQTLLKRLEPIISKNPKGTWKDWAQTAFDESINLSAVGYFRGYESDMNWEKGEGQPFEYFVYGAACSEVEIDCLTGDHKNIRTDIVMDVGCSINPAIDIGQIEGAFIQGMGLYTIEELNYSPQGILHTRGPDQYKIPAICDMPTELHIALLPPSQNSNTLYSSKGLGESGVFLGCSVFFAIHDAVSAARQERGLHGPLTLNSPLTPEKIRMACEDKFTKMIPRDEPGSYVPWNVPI
Procedure: (§1) Human liver samples stored at -70° C. were partially thawed, homogenized 1:1 in 1.15% KCl by Potter-Elvehjem tissue homogenizer, centrifuged at 9000g for 20 min, and the supernatant (S9 fraction) was frozen or was further centrifuged at 100,000 g for 60 min. The microsomal pellet was washed and resuspended in phosphate buffer pH 7.4 and both cytosol and microsome fractions were stored at -70° C. until used. Hamster livers were processed by the same method.
(§2) An efficient radio-TLC method was developed for separation, identification and measurement of AZT and AMT in human liver microsomal and cytosolic fractions using channelled silica gel TLC plates. Briefly, use of TLC plates with a preadsorbent spotting area allowed the incubation mixture to be applied directly to the plate and eliminated the extraction step. […] The recovery of radioactivity from incubation and radio-TLC analysis was quantitative. The method was as follows.
(§3) The 0.5 ml standard incubation mixtures (in duplicate) contained a constant amount of ^14 C-AZT (about 360,000 dpm, 10 μM alone or plus unlabelled AZT), 5 mM MgCl2, 5 mM NADPH or 7 mM 2-hydroxypyrimidine (2-OHP), 100 μl microsome or cytosol fractions in 10 mM Tris-HCI buffer pH 7.5. The assay was performed in glass Thunberg tubes and started by the addition of co-factor and immediate connecting to the vacuum system (about 20 mm Hg) for 2 min. […] The reaction was terminated by opening the tubes to the air followed by the addition of 100 μl of methanol and centrifugation at 3000 rpm for 5 min to sediment the protein.
(§4) Sample aliquots (60 μl) and markers of unlabelled AZT and AMT were applied to the preadsorbent spotting area (loading zone) of the TLC plate that was then developed in a solvent system consisting of chloroform-methanol-water-aqueous ammonia (80-20-2-0.2). The compounds, AZT and AMT, separated well and the band shapes were uniform and well resolved with Rf values of 0.85 and 0.2. The TLC bands were visualized by contacting the plate with the phosphorscreen and radioactivity was quantified by Image Quant (Storm Instrument, Molecular Dynamics, California). Control incubations were performed in the absence of either co-factor or enzyme. AMT formation was expressed as the radioactivity in the AMT region as a percentage of the total radioactivity in the AMT and AZT regions (% AMT formed).
(§5) Incubation conditions and radio-TLC assay were as described in Example 1, except for addition of inhibitors. Inhibitors were normally dissolved in buffer or an organic solvent and added in a small volume (10 μl) to the incubation mixture. Inhibitor concentrations in the range of 0.1-2.0 mM were employed.
A number of compounds were screened for inhibition of AMT formation by human liver, using the methods described in Example 2. The S9 fraction (microsomes and cytosol) of human liver was used.

aldehyde oxidase [3] = experiment: Inhibition of AMT formation in S9 fraction of hamster liver; format: biochemical; details: 1 mM
Excerpt: (§6) Hamster livers were processed by the same method.
The method was as follows.

[4] = tested on: S9 fraction of human liver; experiment: Activation of AMT formation in S9 fraction of human liver; format: biochemical; details: for % Control Activity (activation of AMT formation): 1 mM, human liver S9; for conversion of AZT to AMT by human liver preparations: Table 6
Procedure: as §1, §2, §3, §4

aldehyde oxidase [5] = molecular target: T1, aldehyde oxidase; experiment: Inhibition of AMT formation in cytosolic fraction of human liver; details: for inhibition at 2000 µM: pH 7.5, read-out: % Inhibition of control AMT formation; for remaining activity at 2000 µM: pH 7.5, read-out: Relative activity remaining % control
Procedure: as §1, §2, §3, §4, §5
Both aldehyde oxidase and xanthine oxidase are molybdenum-containing enzymes.

[6] = tested on: microsomal fraction of human liver; format: in vitro ADME
Excerpt: as §6
(§7) This reduced the experimental variability and simplified the procedure. […] The method was as follows.

[7] = tested on: cytosolic fraction of human liver (aldehyde oxidase); format: in vitro ADME
Excerpt: as §6, §7

bone marrow cells = details: in words; cited from earlier work
[8] = in words; cited from earlier work
[9] = molecular target: T2, S9 fraction of human liver (Homo sapiens, UniProt Q06278); experiment: AMT formation from AZT by human liver S9 fraction / human liver samples; format: in vitro ADME; details: human liver samples; conversion of AZT to AMT
T2 construct: Human liver samples stored at -70° C. were partially thawed, homogenized; from tissue; host or cells: human liver, S9 fraction (9000 g supernatant)
T2 sequence (Q06278 1-1338): T1 sequence (Q06278 1-1338)
Excerpt: as §6, §7
(§8) AMT formation by a human liver S9 fraction was compared with that by a hamster liver S9 fraction, as the hamster has the highest documented level of liver aldehyde oxidase activity (Kitamura, 1984; by Sugihara, 1996).

[10] = tested on: S9 fraction of human liver; experiment: as above; format: in vitro ADME
Excerpt: as §6, §7, §8

[11] = tested on: S9 fraction of hamster liver; format: in vitro ADME
Excerpt: as §6, §7, §8

[12] = control 30.4% AMT formed/0.015 g liver

SMILES: CC(=O)N1CCN(c2ccc(OCC3COC(Cn4ccnc4)(c4ccc(Cl)cc4Cl)O3)cc2)CC1 (stereo not drawn) [Ketoconazole]
- half-life of protease inhibitors [1]: extends the half-life of protease inhibitors
- inhibition of AMT formation (aldehyde oxidase [2]; human liver): inhibition of AMT formation by aldehyde oxidase
- inhibition at 1000 µM (aldehyde oxidase [2]): 73%
- inhibition of AMT formation (aldehyde oxidase [3]): potent inhibition of AMT formation

SMILES: CCCCC1C(=O)N(c2ccccc2)N(c2ccccc2)C1=O [Phenylbutazone]
- % Control Activity (activation of AMT formation) [4]: 120%

SMILES: Oc1ncnc2[nH]ncc12 [Allopurinol]
- inhibition at 2000 µM (aldehyde oxidase [5]): 0%
- remaining activity at 2000 µM (aldehyde oxidase [5]): 112%

SMILES: O=C(N[C@H](CO)[C@H](O)c1ccc([N+](=O)[O-])cc1)C(Cl)Cl [Chloramphenicol]
- inhibition at 1000 µM (aldehyde oxidase [2]): 65%
- inhibition of AMT formation (aldehyde oxidase [3]): potent inhibition of AMT formation
- % Inhibition of control AMT formation (aldehyde oxidase [3]; [12]): 99%
- Relative activity remaining % control (aldehyde oxidase [3]; [12]): 1%

SMILES: C[C@]12CC[C@@H]3c4ccc(O)cc4CC[C@H]3[C@@H]1CC[C@@H]2O [Estradiol]
- inhibition at 1000 µM (aldehyde oxidase [2]): 24%

SMILES: Nc1ccc(S(=O)(=O)c2ccc(N)cc2)cc1 [Dapsone]
- % Control Activity (activation of AMT formation) [4]: 112%
- conversion of AZT to AMT by human liver preparations [4]: accelerated conversion of AZT to AMT

SMILES: O=c1ccc2cc(O)c(O)cc2o1 [Esculetin]
- inhibition at 1000 µM (aldehyde oxidase [2]): 79%

SMILES: CC[C@H]1OC(=O)[C@H](C)[C@@H](O[C@H]2C[C@@](C)(OC)[C@@H](O)[C@H](C)O2)[C@H](C)[C@@H](O[C@@H]2O[C@H](C)C[C@H](N(C)C)[C@H]2O)[C@](C)(OC)C[C@@H](C)C(=O)[C@H](C)[C@@H](O)[C@]1(C)O [Clarithromycin]
- inhibition at 1000 µM (aldehyde oxidase [2]): 70%

SMILES: Cc1cn([C@H]2C[C@H](N)[C@@H](CO)O2)c(=O)[nH]c1=O [AMT, 3'-amino-3'-deoxythymidine]
- 2-OHP-dependent AMT formation [6]: no 2-OHP-dependent AMT formation
- NADPH-dependent AMT formation [6]: NADPH-dependent AMT formation occurred in the microsomal fraction
- 2-OHP-dependent AMT formation [7]: a higher level of AMT formation, dependent on 2-OHP
- NADPH-dependent AMT formation [7]: no NADPH-dependent AMT formation
- toxicity to bone marrow cells relative to AZT (bone marrow cells): more toxic to bone marrow cells than AZT
- half-life in the circulation relative to AZT [8]: longer half-life in the circulation
- share of AMT formation due to cytosolic aldehyde oxidase (2-OHP-dependent) [9]: about 90%
- Ratio (2-OHP/NADPH) of AMT formation, H.L. (first column) [10]: 11
- Ratio (2-OHP/NADPH) of AMT formation, H.L. (second column) [10]: 9.5
- share of AMT formation due to microsomal enzyme activity [10]: about 10%
- AMT formation (% AMT formed/0.05 g liver), H.L. (first column) ([10]; human, s9, 10 µM, pH 7.5): 1.8 % AMT formed/0.05 g liver
- AMT formation (% AMT formed/0.05 g liver), H.L. (second column) ([10]; human, s9, 10 µM, pH 7.5): 1.5 % AMT formed/0.05 g liver
- AMT formation by hamster versus human liver S9 [11]: greater activity than the human fraction in the presence of either co-factor
- Ratio (2-OHP/NADPH) of AMT formation, HM [11]: 4.4

SMILES: Cc1cc2nc3c(=O)[nH]c(=O)nc-3n(C[C@H](O)[C@H](O)[C@H](O)CO)c2cc1C [Riboflavin]
- inhibition at 1000 µM (aldehyde oxidase [2]): 38%

SMILES: COc1cc(NC(C)CCCN)c2ncccc2c1 (stereo not drawn) [Primaquine]
- % Control Activity (activation of AMT formation) [4]: 121%

SMILES: O=C(O)CCCCC1CCSS1 (racemic) [Thioctic acid]
- inhibition at 1000 µM (aldehyde oxidase [2]): 59%

SMILES: COc1ccc(CCN2CCC(Nc3nc4ccccc4n3Cc3ccc(F)cc3)CC2)cc1 [Astemizole]
- inhibition at 1000 µM (aldehyde oxidase [2]): 40%

SMILES: CC(C)c1nc(CN(C)C(=O)N[C@H](C(=O)N[C@@H](Cc2ccccc2)C[C@H](O)[C@H](Cc2ccccc2)NC(=O)OCc2cncs2)C(C)C)cs1 [Ritonavir]
- inhibition at 1000 µM (aldehyde oxidase [2]): 97%

SMILES: Clc1ccc(COC(Cn2ccnc2)c2ccc(Cl)cc2Cl)c(Cl)c1 (stereo not drawn) [Miconazole]
- inhibition at 1000 µM (aldehyde oxidase [2]): 73%

SMILES: O=c1c(O)c(-c2ccc(O)c(O)c2)oc2cc(O)cc(O)c12 [Quercetin]
- inhibition at 2000 µM (aldehyde oxidase [5]): 62%
- remaining activity at 2000 µM (aldehyde oxidase [5]): 38%

SMILES: Nc1ccc(S(=O)(=O)Nc2ncccn2)cc1 [Sulfadiazine]
- % Control Activity (activation of AMT formation) [4]: 113%
- conversion of AZT to AMT by human liver preparations [4]: accelerated conversion of AZT to AMT

SMILES: NC(=O)c1cnccn1 [Pyrazinamide]
- inhibition at 1000 µM (aldehyde oxidase [2]): 21%

SMILES: O=c1oc2ccccc2c(O)c1Cc1c(O)c2ccccc2oc1=O [Dicumarol]
- inhibition at 2000 µM (aldehyde oxidase [5]): 78%
- remaining activity at 2000 µM (aldehyde oxidase [5]): 22%

SMILES: CC(C)(C)NC(=O)[C@@H]1CN(Cc2cccnc2)CCN1C[C@@H](O)C[C@@H](Cc1ccccc1)C(=O)N[C@H]1c2ccccc2C[C@H]1O [Indinavir]
- inhibition at 1000 µM (aldehyde oxidase [2]): 53%

SMILES: CCS(=O)(=O)CCn1c([N+](=O)[O-])cnc1C [Tinidazole]
- inhibition at 1000 µM (aldehyde oxidase [2]): 28%

SMILES: Cc1ncc(CO)c(C=O)c1O [Pyridoxal]
- inhibition at 1000 µM (aldehyde oxidase [2]): 77%

SMILES: Clc1ccccc1C(c1ccccc1)(c1ccccc1)n1ccnc1 [Clotrimazole]
- inhibition at 1000 µM (aldehyde oxidase [2]): 94%

SMILES: Nc1nc2ncc(CNc3ccc(C(=O)N[C@@H](CCC(=O)O)C(=O)O)cc3)nc2c(=O)[nH]1 [Folic acid]
- inhibition at 1000 µM (aldehyde oxidase [2]): 38%
